In the NIST ThermoML archive (doi:10.1021/acs.jced.7b00201):

Assay: xn = mol fraction of the nth substance listed
Conditions: 100 kPa, Liquid; for mass density: Vibrating tube method; for viscosity: Falling or rolling sphere viscometry

CCCCC1CCCCC1 [butylcyclohexane] + CCCCCCCCCCCC
Conditions | mass density [kg/m3] | viscosity [mPa·s]
318.15 K, x2 = 0 | 780.52 | –
318.15 K, x2 = 0.1017 | 774.07 | –
318.15 K, x2 = 0.1996 | 768.22 | –
318.15 K, x2 = 0.2951 | 762.85 | –
318.15 K, x2 = 0.4221 | 756.14 | –
318.15 K, x2 = 0.5126 | 751.63 | –
318.15 K, x2 = 0.6256 | 746.29 | –
318.15 K, x2 = 0.7002 | 742.93 | –
318.15 K, x2 = 0.7989 | 738.69 | –
318.15 K, x2 = 0.9012 | 734.5 | –
323.15 K, x2 = 0 | 776.74 | 0.844
323.15 K, x2 = 0.1017 | 770.3 | 0.851
323.15 K, x2 = 0.1996 | 764.47 | 0.858
323.15 K, x2 = 0.2951 | 759.12 | 0.864
323.15 K, x2 = 0.4221 | 752.42 | 0.874
323.15 K, x2 = 0.5126 | 747.93 | 0.881
323.15 K, x2 = 0.6256 | 742.6 | 0.89
323.15 K, x2 = 0.7002 | 739.25 | 0.896
323.15 K, x2 = 0.7989 | 735.02 | 0.905
323.15 K, x2 = 0.9012 | 730.84 | 0.915
328.15 K, x2 = 0 | 772.93 | 0.794
328.15 K, x2 = 0.1017 | 766.52 | 0.8
328.15 K, x2 = 0.1996 | 760.71 | 0.806
328.15 K, x2 = 0.2951 | 755.37 | 0.812
328.15 K, x2 = 0.4221 | 748.7 | 0.821
328.15 K, x2 = 0.5126 | 744.22 | 0.827
328.15 K, x2 = 0.6256 | 738.9 | 0.834
328.15 K, x2 = 0.7002 | 735.56 | 0.84
328.15 K, x2 = 0.7989 | 731.33 | 0.848
328.15 K, x2 = 0.9012 | 727.16 | 0.858
333.15 K, x2 = 0 | 769.13 | 0.749
333.15 K, x2 = 0.1017 | 762.73 | 0.754
333.15 K, x2 = 0.1996 | 756.94 | 0.759
333.15 K, x2 = 0.2951 | 751.62 | 0.763
333.15 K, x2 = 0.4221 | 744.96 | 0.771
333.15 K, x2 = 0.5126 | 740.49 | 0.775
333.15 K, x2 = 0.6256 | 735.19 | 0.781
333.15 K, x2 = 0.7002 | 731.86 | 0.787
333.15 K, x2 = 0.7989 | 727.64 | 0.794
333.15 K, x2 = 0.9012 | 723.48 | 0.803
338.15 K, x2 = 0 | 765.3 | 0.708
338.15 K, x2 = 0.1017 | 758.93 | 0.712
338.15 K, x2 = 0.1996 | 753.16 | 0.716
338.15 K, x2 = 0.2951 | 747.85 | 0.721
338.15 K, x2 = 0.4221 | 741.21 | 0.728
338.15 K, x2 = 0.5126 | 736.75 | 0.733
338.15 K, x2 = 0.6256 | 731.47 | 0.738
338.15 K, x2 = 0.7002 | 728.14 | 0.742
338.15 K, x2 = 0.7989 | 723.94 | 0.749
338.15 K, x2 = 0.9012 | 719.78 | 0.756
343.15 K, x2 = 0 | 761.47 | 0.67
343.15 K, x2 = 0.1017 | 755.12 | 0.674
343.15 K, x2 = 0.1996 | 749.37 | 0.678
343.15 K, x2 = 0.2951 | 744.07 | 0.682
343.15 K, x2 = 0.4221 | 737.45 | 0.687
343.15 K, x2 = 0.5126 | 733 | 0.691
343.15 K, x2 = 0.6256 | 727.73 | 0.696
343.15 K, x2 = 0.7002 | 724.41 | 0.701
343.15 K, x2 = 0.7989 | 720.22 | 0.708
343.15 K, x2 = 0.9012 | 716.08 | 0.715
